How the values were obtained:
[1] = target: T1, LuxS (S-ribosylhomocysteinase) (Bacillus subtilis, UniProt O34667); assay: LuxS activity assay with SRH and DTNB at […] nm, […] min preincubation; format: biochemical
T1 sequence (O34667 1-157): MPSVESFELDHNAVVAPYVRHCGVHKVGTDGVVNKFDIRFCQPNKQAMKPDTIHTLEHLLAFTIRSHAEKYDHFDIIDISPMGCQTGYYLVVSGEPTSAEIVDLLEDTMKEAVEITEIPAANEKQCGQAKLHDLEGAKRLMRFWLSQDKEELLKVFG

[2] = target: T1, LuxS (S-ribosylhomocysteinase); assay: LuxS activity assay with SRH and DTNB at […] nm; format: biochemical

Row | Compound | Ki [1] [µM] | Ki [2] [µM]
1 | N[C@@H](CCSC[C@H]1NC(O)[C@H](O)[C@@H]1O)C(=O)O (mixture of isomers) [compound 23, S-(4-Amino-4,5-dideoxy-α/β-D-ribofuranos-5-yl)-L-homocysteine] | 3.5 | 
2 | N[C@@H](CCSC[C@H]1NC[C@H](O)[C@@H]1O)C(=O)O [compound 12, S-(1-Amino-1,4-anhydro-1,5-dideoxy-D-ribitol-5-yl)-L-homocysteine] |  | 48
3 | N[C@@H](CCSC[C@H]1NC(=O)[C@H](O)[C@@H]1O)C(=O)O [compound 21, S-(4-Amino-4,5-dideoxy-D-ribono-1,4-lactam-5-yl)-L-homocysteine] |  | 37

Source: PMC3171632 (2011)
